Experimental data published in PMC5085761 (International Journal of Molecular Sciences, 2016).

Target: T1, OAT1 (Homo sapiens, UniProt Q4U2R8)
T1 construct: host or cells: Flp-in-293
T1 sequence (Q4U2R8 1-563): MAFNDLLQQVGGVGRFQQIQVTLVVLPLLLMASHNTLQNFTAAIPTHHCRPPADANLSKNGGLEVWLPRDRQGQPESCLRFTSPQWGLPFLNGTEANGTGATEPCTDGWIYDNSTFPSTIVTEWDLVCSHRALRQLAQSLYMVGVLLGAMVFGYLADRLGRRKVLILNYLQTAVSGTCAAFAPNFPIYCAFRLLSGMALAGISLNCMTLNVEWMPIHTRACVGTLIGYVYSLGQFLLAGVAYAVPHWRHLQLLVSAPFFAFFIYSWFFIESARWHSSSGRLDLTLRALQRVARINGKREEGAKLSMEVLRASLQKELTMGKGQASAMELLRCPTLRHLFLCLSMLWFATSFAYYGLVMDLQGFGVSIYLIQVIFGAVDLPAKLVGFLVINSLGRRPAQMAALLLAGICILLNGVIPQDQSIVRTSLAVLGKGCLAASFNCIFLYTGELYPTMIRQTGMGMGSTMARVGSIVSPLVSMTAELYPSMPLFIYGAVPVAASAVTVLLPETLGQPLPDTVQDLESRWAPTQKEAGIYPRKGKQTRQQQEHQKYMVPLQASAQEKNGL
Experiment: [14C]fluciclovine uptake by OAT1-expressing cells
Format: in vitro ADME
Conditions: OAT1 cells vs mock cells
Experimental: For the SLC transporter experiments, Mock Flp-in-293 cells (Flp/mock), OAT1-expressing Flp-in-293 cells (Flp/OAT1), mock HEK293 cells (HEK/mock), and OATP1B3-expressing HEK293 cells (HEK/OATP1B3) were obtained from Kanazawa University (Ishikawa, Japan). Briefly, Flp-in-293 and HEK293 cells were transfected with the appropriate plasmid DNA and selected using antibiotics (hygromycin or G-418). All cell lines were cultured in DMEM (Life Technologies Japan) supplemented with 10% (v/v) fetal bovine serum (American Type Culture Collection) and antibiotics (100 U/mL penicillin and 100 μg/mL streptomycin (Life Technologies Japan) for mock cells, 0.2 mg/mL hygromycin for Flp/OAT1 cells, and 1.2 mg/mL G-418 (Roche Diagnostics K.K., Tokyo, Japan) for HEK/OATP1B3 cells) at 37 °C under an atmosphere containing 5% CO2. […]
The experiments were performed as described previously, with minor modifications. […] The cells were lysed in 0.3 mL of 0.1N NaOH at room temperature, after which the radioactivity of each aliquot was measured as described above. The protein concentration of the cell lysate was determined with a VersaMax microplate reader (Molecular Devices Japan K.K., Osaka, Japan) or SpectraMax i3x (Molecular Devices Japan K.K.; only for OATP1B1) using a BCA Protein Assay Kit (Thermo Fisher Scientific, Kanagawa, Japan). Tracer uptake was expressed as pmol/mg protein. […]

## N[14C]1(C(=O)O)CC(F)C1 (stereo not drawn) [[^14C]fluciclovine, trans-1-amino-3-fluoro[1-^14C]cyclobutanecarboxylic acid]
  drug transporter-mediated uptake: negligible
